Experimental data as given in patent US9549558B2, “Herbicidal azines” (BASF SE, priority 2012, dated 2017).

Assays:
Assay type in all cases: in vivo
[1] = test system: ABUTH (Abutilon theophrasti); experiment: greenhouse pre-emergence herbicidal test
From the text: (§1) The seeds of the test plants were sown separately for each species. For the pre-emergence treatment, the active ingredients, which had been suspended or emulsified in water, were applied directly after sowing by means of finely distributing nozzles. The containers were irrigated gently to promote germination and growth and subsequently covered with transparent plastic hoods until the plants had rooted. This cover caused uniform germination of the test plants, unless this had been impaired by the active ingredients. Depending on the species, the plants were kept at 10-25° C. or 20-35° C., respectively. The test period extended over 2 to 4 weeks. During this time, the plants were tended, and their response to the individual treatments was evaluated. […] A moderate herbicidal activity is given at values of at least 60, a good herbicidal activity is given at values of at least 70, and a very good herbicidal activity is given at values of at least 85. The plants used in the greenhouse experiments were of the following species: [table]

[2] = test system: AMARE (Amaranthus retroflexus); experiment: greenhouse pre-emergence herbicidal test
From the text: as §1

[3] = test system: ECHCG (Echinocloa crus-galli); experiment: greenhouse pre-emergence herbicidal test
From the text: (§2) The culture containers used were plastic flowerpots containing loamy sand with approximately 3.0% of humus as the substrate. The seeds of the test plants were sown separately for each species.
(§3) For the pre-emergence treatment, the active ingredients, which had been suspended or emulsified in water, were applied directly after sowing by means of finely distributing nozzles. The containers were irrigated gently to promote germination and growth and subsequently covered with transparent plastic hoods until the plants had rooted. This cover caused uniform germination of the test plants, unless this had been impaired by the active ingredients.
(§4) Depending on the species, the plants were kept at 10-25° C. or 20-35° C., respectively.
(§5) The test period extended over 2 to 4 weeks. During this time, the plants were tended, and their response to the individual treatments was evaluated.
(§6) Evaluation was carried out using a scale from 0 to 100. 100 means no emergence of the plants, or complete destruction of at least the aerial moieties, and 0 means no damage, or normal course of growth. A moderate herbicidal activity is given at values of at least 60, a good herbicidal activity is given at values of at least 70, and a very good herbicidal activity is given at values of at least 85.
(§7) The plants used in the greenhouse experiments were of the following species: […]

[4] = test system: CAPBP (Capsella bursa-pastoris); experiment: greenhouse pre-emergence herbicidal test; settings: 0.125 kg/ha, CAPBP
From the text: as §2, §3, §4, §5, §6, §7

STEME (Stellaria media) = experiment: greenhouse pre-emergence herbicidal test
From the text: as §2, §3, §4, §5, §6, §7

[5] = test system: AMARE (Amaranthus retroflexus); experiment: greenhouse post-emergence herbicidal test; settings: 0.031 kg/ha
From the text: as §2
For the post-emergence treatment, the test plants were first grown to a height of 3 to 15 cm, depending on the plant habit, and only then treated with the active ingredients which had been suspended or emulsified in water. For this purpose, the test plants were either sown directly and grown in the same containers, or they were first grown separately as seedlings and transplanted into the test containers a few days prior to treatment.
as §4, §5, §6, §7

With `Nc1nc(Nc2c(F)ccc(F)c2F)nc(C(F)F)n1` [Example 123] the herbicidal activity ([1]; 250 g/ha) was “good (a good herbicidal activity is given at values of at least 70)”, the herbicidal activity ([2]; 250 g/ha) was “very good (a very good herbicidal activity is given at values of at least 85)” and the herbicidal activity ([3]; 250 g/ha) was “good (a good herbicidal activity is given at values of at least 70)”.
In the case of `COc1cccc(F)c1Nc1nc(N)nc(C(C)(C)F)n1` [Example 42], the herbicidal activity ([2]; 0.0625 kg/ha) is reported as “very good (a very good herbicidal activity is given at values of at least 85)”.
For `CC(C)(F)c1nc(N)nc(Nc2c(Br)cc(F)c(F)c2F)n1` [Example 34], the herbicidal activity [4] was “very good (a very good herbicidal activity is given at values of at least 85)” and the herbicidal activity (STEME (Stellaria media); 0.125 kg/ha) was “very good (a very good herbicidal activity is given at values of at least 85)”.
In the case of `CC=C(C)c1nc(N)nc(Nc2c(F)cccc2F)n1` [Example 124], the herbicidal activity ([1]; 1000 g/ha) is reported as “very good (a very good herbicidal activity is given at values of at least 85)”, the herbicidal activity ([2]; 1000 g/ha) is reported as “very good (a very good herbicidal activity is given at values of at least 85)” and the herbicidal activity ([3]; 1000 g/ha) is reported as “very good (a very good herbicidal activity is given at values of at least 85)”.
In the case of `CC(C)(C)c1nc(N)nc(Nc2c(F)cccc2C#N)n1` [Example 135], the herbicidal activity ([1]; 500 g/ha) is reported as “very good (a very good herbicidal activity is given at values of at least 85)”, the herbicidal activity ([2]; 500 g/ha) is reported as “very good (a very good herbicidal activity is given at values of at least 85)” and the herbicidal activity ([3]; 500 g/ha) is reported as “very good (a very good herbicidal activity is given at values of at least 85)”.
In the case of `Nc1nc(CC(F)(F)F)nc(Nc2c(F)c(F)c(F)c(F)c2F)n1` [Example 72], the herbicidal activity ([1]; 125 g/ha) is reported as “very good (a very good herbicidal activity is given at values of at least 85)” and the herbicidal activity ([2]; 125 g/ha) is reported as “very good (a very good herbicidal activity is given at values of at least 85)”.
In the case of `CC(C)(F)c1nc(N)nc(Nc2c(F)ccc([N+](=O)[O-])c2F)n1` [Example 189], the herbicidal activity ([1]; 507 g/ha) is reported as “very good (a very good herbicidal activity is given at values of at least 85)”, the herbicidal activity ([2]; 507 g/ha) is reported as “very good (a very good herbicidal activity is given at values of at least 85)” and the herbicidal activity ([3]; 507 g/ha) is reported as “very good (a very good herbicidal activity is given at values of at least 85)”.
For `Nc1nc(CF)nc(Nc2c(F)c(F)cc(F)c2F)n1` [Example 198], the herbicidal activity ([2]; 119 g/ha) was “very good (a very good herbicidal activity is given at values of at least 85)”.
In the case of `CC(C)c1nc(N)nc(Nc2c(F)ccc(Cl)c2F)n1` [Example 67], the herbicidal activity ([1]; 125 g/ha) is reported as “good (a good herbicidal activity is given at values of at least 70)” and the herbicidal activity ([2]; 125 g/ha) is reported as “very good (a very good herbicidal activity is given at values of at least 85)”.
For `COc1cccc(OC)c1Nc1nc(N)nc(C(C)(C)F)n1` [Example 47], the herbicidal activity ([2]; 0.125 kg/ha) was “very good (a very good herbicidal activity is given at values of at least 85)”.
For `CC(F)c1nc(N)nc(Nc2c(F)c(F)c(Br)c(F)c2F)n1` (centres unmarked) [Example 180], the herbicidal activity ([1]; 250 g/ha) was “very good (a very good herbicidal activity is given at values of at least 85)” and the herbicidal activity ([2]; 250 g/ha) was “very good (a very good herbicidal activity is given at values of at least 85)”.
In the case of `CC(C)(F)c1nc(N)nc(Nc2c(F)cccc2Br)n1` [Example 31], the herbicidal activity [5] is reported as “very good (a very good herbicidal activity is given at values of at least 85)”.
`COc1ccc(F)c(Nc2nc(N)nc(C(C)(C)F)n2)c1F` [Example 43] was tested, and the herbicidal activity [5] was “good (a good herbicidal activity is given at values of at least 70)”.
In the case of `CCCC(F)(CC)c1nc(N)nc(Nc2c(F)c(F)c(F)c(F)c2F)n1` (centres unmarked) [Example 50], the herbicidal activity [4] is reported as “very good (a very good herbicidal activity is given at values of at least 85)” and the herbicidal activity (STEME (Stellaria media); 0.125 kg/ha) is reported as “very good (a very good herbicidal activity is given at values of at least 85)”.
For `CCC(C)c1nc(N)nc(Nc2c(F)c(F)cc(F)c2F)n1` (centres unmarked) [Example 193], the herbicidal activity ([1]; 500 g/ha) was “very good (a very good herbicidal activity is given at values of at least 85)”, the herbicidal activity ([2]; 500 g/ha) was “very good (a very good herbicidal activity is given at values of at least 85)” and the herbicidal activity ([3]; 500 g/ha) was “very good (a very good herbicidal activity is given at values of at least 85)”.
For `N#Cc1cccc(F)c1Nc1nc(N)nc(C(F)F)n1` [Example 149], the herbicidal activity (STEME (Stellaria media); 250 g/ha) was “good (a good herbicidal activity is given at values of at least 70)”.
In the case of `CC(C#N)c1nc(N)nc(Nc2c(F)c(F)c(F)c(F)c2F)n1` (centres unmarked) [Example 5], the herbicidal activity ([2]; 0.125 kg/ha) is reported as “very good (a very good herbicidal activity is given at values of at least 85)”.
With `CCC(C)(Cl)c1nc(N)nc(Nc2c(F)c(F)c(Br)c(F)c2F)n1` (centres unmarked) [Example 195] the herbicidal activity ([1]; 500 g/ha) was “good (a good herbicidal activity is given at values of at least 70)”, the herbicidal activity ([2]; 500 g/ha) was “very good (a very good herbicidal activity is given at values of at least 85)” and the herbicidal activity ([3]; 500 g/ha) was “good (a good herbicidal activity is given at values of at least 70)”.
In the case of `COC(C)c1nc(N)nc(Nc2c(F)ccc(F)c2F)n1` (centres unmarked) [Example 228], the herbicidal activity ([1]; 500 g/ha) is reported as “very good (a very good herbicidal activity is given at values of at least 85)” and the herbicidal activity ([2]; 500 g/ha) is reported as “very good (a very good herbicidal activity is given at values of at least 85)”.
For `Cc1cc(C)cc(Oc2cccc(F)c2Nc2nc(N)nc(C(C)(C)F)n2)c1` [Example 191], the herbicidal activity ([1]; 1000 g/ha) was “very good (a very good herbicidal activity is given at values of at least 85)”, the herbicidal activity ([2]; 1000 g/ha) was “very good (a very good herbicidal activity is given at values of at least 85)” and the herbicidal activity ([3]; 1000 g/ha) was “very good (a very good herbicidal activity is given at values of at least 85)”.
In the case of `CCOc1ccc(F)c(Nc2nc(N)nc(C(C)(C)F)n2)c1F` [Example 44], the herbicidal activity ([1]; 0.125 kg/ha) is reported as “very good (a very good herbicidal activity is given at values of at least 85)” and the herbicidal activity ([2]; 0.125 kg/ha) is reported as “very good (a very good herbicidal activity is given at values of at least 85)”.
In the case of `CC=C(C)c1nc(N)nc(Nc2c(F)c(F)cc(F)c2F)n1` [Example 206], the herbicidal activity ([2]; 500 g/ha) is reported as “very good (a very good herbicidal activity is given at values of at least 85)”.
`Nc1nc(C2CCCC2)nc(N(C(=O)C2CCCC2)c2c(F)ccc(F)c2F)n1` [Example 302] was tested, and the herbicidal activity ([1]; 1000 g/ha) was “good (a good herbicidal activity is given at values of at least 70)”, the herbicidal activity ([2]; 1000 g/ha) was “very good (a very good herbicidal activity is given at values of at least 85)” and the herbicidal activity ([3]; 1000 g/ha) was “very good (a very good herbicidal activity is given at values of at least 85)”.
For `Cc1cccc(F)c1Nc1nc(N)nc(C(C)(C)F)n1` [Example 41], the herbicidal activity ([2]; 0.031 kg/ha) was “good (a good herbicidal activity is given at values of at least 70)”.
With `CCN(c1nc(N)nc(C(C)(C)F)n1)c1c(F)c(F)c(F)c(F)c1F` [Example 308] the herbicidal activity ([2]; 125 g/ha) was “very good (a very good herbicidal activity is given at values of at least 85)”.
In the case of `CC(C)c1nc(N)nc(Nc2c(F)cccc2F)n1` [Example 66], the herbicidal activity ([2]; 62.5 g/ha) is reported as “very good (a very good herbicidal activity is given at values of at least 85)”.
`CCC(C#N)(CC)c1nc(N)nc(Nc2c(F)c(F)cc(F)c2F)n1` [Example 219] was tested, and the herbicidal activity ([1]; 250 g/ha) was “very good (a very good herbicidal activity is given at values of at least 85)” and the herbicidal activity ([2]; 250 g/ha) was “very good (a very good herbicidal activity is given at values of at least 85)”.
`Nc1nc(Nc2c(F)c(F)c(F)c(F)c2F)nc(C(F)F)n1` [Example 121] was tested, and the herbicidal activity ([1]; 250 g/ha) was “very good (a very good herbicidal activity is given at values of at least 85)” and the herbicidal activity ([2]; 250 g/ha) was “very good (a very good herbicidal activity is given at values of at least 85)”.
